Data published in PubChem BioAssay AID434987 (Southern Research Specialized Biocontainment Screening …, 2010).
Active and inactive are the calls of the source. How the calls were made is not given here.

Test system: M. tuberculosis H37Rv growth inhibition with meropenem
Experiment: dose response, H37Rv, with and without meropenem (AID 434987);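 further: growth over 7 days at 37 °C before Alamar Blue read on day 9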
[1] = M. tuberculosis H37Rv growth inhibition, measured here: IC50 without meropenem
[2] = M. tuberculosis H37Rv growth inhibition, measured here: IC90 without meropenem
[3] = measured here: IC90 with meropenem

Compound | IC50 | IC50 [1] | IC90 [2] | IC90 [3]
O=C1S/C(=C\C=C\c2ccco2)C(=O)N1c1ccccc1 | 14.7 µM | 43.5 µM | > 100 µM | 77.6 µM
CCOc1cccc(/C=N/Nc2nc(N3CCCC3)nc(N3CCCC3)n2)c1O | 90.8 µM (inactive) | > 100 µM | > 100 µM | > 100 µM
CC(=O)Nc1scc(C)c1-c1nc2ccccc2s1 | > 100 µM (inactive) | > 100 µM | > 100 µM | > 100 µM
CCCN1C(=O)S/C(=C/c2ccc(N3CCOCC3)o2)C1=O | < 0.2 µM | 34.9 µM | > 100 µM | > 100 µM
Cn1c2ccccc2c(=O)c2cc(C#CC3(O)CCCCC3)ccc21 | > 100 µM (inactive) | > 100 µM | > 100 µM | > 100 µM
Cc1cccc2nc(COc3ccc4ccccc4c3Br)cn12 | 49 µM (inactive) | 47.5 µM | > 100 µM | > 100 µM
S=C(Nc1ccccc1Cl)N1CCCC(c2ccccc2)=N1 | > 100 µM (inactive) | 68.9 µM | 87.8 µM | > 100 µM
CN(C)CC(=O)Nc1nc(-c2ccccc2)cs1 | 10.5 µM | 83 µM | > 100 µM | > 100 µM
O=c1c2ccccc2c(-c2ccccc2)nn1-c1ccccc1 | 19.7 µM | > 100 µM | > 100 µM | > 100 µM
CNC(=O)COC(=O)c1ccccc1NC(=O)c1ccco1 | 35.1 µM (inactive) | 47.1 µM | > 100 µM | > 100 µM
NS(=O)(=O)c1ccc(Sc2nc3ccccc3s2)c([N+](=O)[O-])c1 | > 100 µM (inactive) | > 100 µM | > 100 µM | > 100 µM
CC(C)c1ccc(/C=C/C(=O)NC2CCCCC2)cc1 | 38.2 µM | > 100 µM | > 100 µM | > 100 µM
CCOc1ccc(N2C(=O)CC(N)C2=O)cc1 (centres undefined) | 30.9 µM (inactive) | 45.9 µM | 51.4 µM | 52.4 µM
COc1ccc(/C=N/Nc2nc(-c3ccc(C)cc3)c(NC(C)=O)s2)cc1 | 24.2 µM | > 100 µM | > 100 µM | > 100 µM
COc1ccc(-c2cc(C(F)(F)F)nc(SCC(=O)Nc3sc4c(c3C#N)CCC4)n2)cc1 | 94 µM (inactive) | > 100 µM | > 100 µM | > 100 µM
O=C(O)CCC/C=C\C[C@@H]1[C@@H](/C=C/[C@@H](O)COc2cccc(Cl)c2)[C@H](O)C[C@@H]1O | > 100 µM (inactive) | > 100 µM | > 100 µM | > 100 µM
COc1cccc(C(=O)C2CCCN(Cc3ccccn3)C2)c1 (centres undefined) | 1.46 µM | 16.2 µM | > 100 µM | 97.5 µM
NC(=O)Nc1ccc(C(=O)OCC(=O)Nc2ccc(Cl)cn2)cc1 | > 100 µM (inactive) | > 100 µM | > 100 µM | > 100 µM
CCCCCCC(=O)Nc1nc(C)c(-c2csc(Nc3cc(Cl)ccc3OC)n2)s1 | 42.3 µM (inactive) | 51.1 µM | > 100 µM | > 100 µM
O=C(/C=C/c1ccccc1[N+](=O)[O-])c1ccc(F)cc1 | 19.8 µM | 94.1 µM | > 100 µM | > 100 µM
Cc1cccc(Cn2c(N3CCN(c4ccccc4)CC3)nc3c2c(=O)n(C)c(=O)n3C)c1 | > 100 µM (inactive) | > 100 µM | > 100 µM | > 100 µM
